Molecular target: human activated kallikrein enzyme (Homo sapiens, UniProt P03952)
Experiment: Inhibition of human activated plasma kallikrein, fluorogenic peptide substrate (PFR-AMC), 500 pM enzyme format
Type: biochemical
Settings: 500 pM activated kallikrein, 30 min preincubation, 10 min reaction, room temperature, read-out: Primary Dose Response Assay: Average EC50
Experimental: Compounds were evaluated for inhibition of the human activated kallikrein enzyme in two formats of an assay employing a fluorogenic peptide substrate. In one assay format, the concentrations of reagents were as follows: 20 mM Tris pH 7.5, 1 mM EDTA, 150 mM sodium chloride, 0.1% PEG-400, 0.1% Triton X-100, 500 pM activated kallikrein enzyme, […] Pro-Phe-Arg-7-amido-4-methylcoumarin (PFR-AMC) substrate. Prior to reaction initiation with substrate, enzyme and inhibitors were preincubated for 30 min at room temperature. After initiation with substrate, reactions were incubated for 10 min at room temperature and fluorescence emission at 460 nm from 380 nm excitation measured with a microplate reader. In another assay format, the concentrations of reagents were as follows: 20 mM Tris pH 7.5, 1 mM EDTA, 150 mM sodium chloride, 0.1% PEG-400, 0.1% Triton X-100, 5 pM activated kallikrein enzyme, 300 uM PFR-AMC substrate. Prior to reaction initiation with substrate, enzyme and inhibitors were preincubated for 30 min at room temperature. After initiation with substrate, reactions were incubated for 18 hr at room temperature and fluorescence emission at 460 nm from 380 nm excitation measured with a microplate reader.

Sequence of human activated kallikrein enzyme (P03952 391-638 limits assumed): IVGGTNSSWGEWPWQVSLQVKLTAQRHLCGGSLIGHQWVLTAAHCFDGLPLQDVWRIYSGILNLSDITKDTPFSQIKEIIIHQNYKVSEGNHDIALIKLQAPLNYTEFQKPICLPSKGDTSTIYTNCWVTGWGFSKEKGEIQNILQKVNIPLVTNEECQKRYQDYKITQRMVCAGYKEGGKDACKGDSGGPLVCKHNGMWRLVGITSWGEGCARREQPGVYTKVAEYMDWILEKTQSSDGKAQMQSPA
Sequence of human activated kallikrein enzyme (P03952 20-390 partner limits assumed): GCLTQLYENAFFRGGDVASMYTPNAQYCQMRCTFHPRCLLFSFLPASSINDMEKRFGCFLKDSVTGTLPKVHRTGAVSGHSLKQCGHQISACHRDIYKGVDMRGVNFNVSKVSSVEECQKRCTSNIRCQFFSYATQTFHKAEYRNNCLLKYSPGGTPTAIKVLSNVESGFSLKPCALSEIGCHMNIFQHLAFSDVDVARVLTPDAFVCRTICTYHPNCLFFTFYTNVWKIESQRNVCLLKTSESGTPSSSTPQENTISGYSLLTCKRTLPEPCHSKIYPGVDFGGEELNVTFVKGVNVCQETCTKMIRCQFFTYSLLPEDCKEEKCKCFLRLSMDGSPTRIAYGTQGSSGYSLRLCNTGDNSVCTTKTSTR

Q: With Cc1ccnc([C@H]2C[C@@H]2C(=O)Nc2cc(NCc3cc(F)c4ncc(Cl)cc4c3)nc(C)n2)n1 [Example 91, (1S,2S)—N-(6-(((3-chloro-8-fluoroquinolin-6-yl)methyl)amino)-2-methylpyrimidin-4-yl)-2-(4-methylpyrimidin-2-yl)cyclopropane-1-carboxamide] as the compound, how does the EC50 read?
A: Its EC50 is 2.5 to 25 nM.

Q: How did the EC50 turn out when O=C(Nc1cn(Cc2ccc(Cn3cccn3)cc2)cn1)[C@H]1C[C@@H]1c1cccc(Cl)c1 (racemic) [Example 9, rac-(1S*,2S*)—N-(1-(4-((1H-pyrazol-1-yl)methyl)benzyl)-1H-imidazol-4-yl)-2-(3-chlorophenyl)cyclopropane-1-carboxamide] was run?
A: The EC50 was > 500 nM.

Q: How did the EC50 turn out when O=C(Nc1cc(OCc2ccc(Cn3cccn3)cc2)cnn1)C1CC12C(=O)Nc1ccccc12 (centres unmarked) [Example 7, N-(5-((4-((1H-pyrazol-1-yl)methyl)benzyl)oxy)pyridazin-3-yl)-2′-oxospiro[cyclopropane-1,3′-indoline]-2-carboxamide] was run?
A: Its EC50 is > 500 nM.

Q: How did the EC50 turn out when O=C(Nc1cc(N2C[C@@H](O)CC2c2ccc(N3CC4CC4C3)nc2)ncn1)[C@H]1C[C@@H]1c1cccc(Cl)c1 (stereo partly drawn) [Example 67, (S,2S)—N-(6-((4S)-2-(6-(3-azabicyclo[3.1.0]hexan-3-yl)pyridin-3-yl)-4-hydroxypyrrolidin-1-yl)pyrimidin-4-yl)-2-(3-chlorophenyl)cyclopropane-1-carboxamide] was run?
A: The EC50 was 25 to 500 nM.

Q: How did the EC50 turn out when O=C(Nc1cc(NCc2cn3nc(C4CC4)cc(N4CCOC4=O)c3n2)ncn1)[C@H]1C[C@@H]1c1cccc(Cl)c1 [Example 44, (1S,2S)-2-(3-chlorophenyl)-N-(6-(((6-cyclopropyl-8-(2-oxooxazolidin-3-yl)imidazo[1,2-b]pyridazin-2-yl)methyl)amino)pyrimidin-4-yl)cyclopropane-1-carboxamide] was run?
A: The EC50 was 2.5 to 25 nM.

Q: With CN(C(=O)[C@H]1C[C@H](O)CN1c1cc(NC(=O)[C@H]2C[C@@H]2c2cccc(Cl)c2)ncn1)c1ccc(C2CC2)cc1 [Example 65, (2R,4S)-1-(6-((1S,2S)-2-(3-chlorophenyl)cyclopropane-1-carboxamido)pyrimidin-4-yl)-N-(4-cyclopropylphenyl)-4-hydroxy-N-methylpyrrolidine-2-carboxamide] as the compound, how does the EC50 read?
A: The EC50 was > 500 nM.

Q: How did the EC50 turn out when O=C(Nc1cc(OCc2ccc(Cn3cccn3)cc2)cnn1)[C@H]1C[C@@H]1c1cn[nH]c1 (racemic) [Example 6, rac-(1S*,2S*)—N-(5-((4-((1H-pyrazol-1-yl)methyl)benzyl)oxy)pyridazin-3-yl)-2-(1H-pyrazol-4-yl)cyclopropane-1-carboxamide] was run?
A: Its EC50 is > 500 nM.

Q: Which EC50 does the source give for O=C(Nc1cc(OCc2ccc(Cn3cccn3)cc2)cnn1)[C@H]1C[C@@H]1c1cccc(Cl)c1 (racemic) [Example 18, rac-(1S*,2S*)—N-(5-((4-((1H-pyrazol-1-yl)methyl)benzyl)oxy)pyridazin-3-yl)-2-(3-chlorophenyl)cyclopropane-1-carboxamide] here?
A: Its EC50 is 2.5 to 25 nM.

Q: For CC(C)(O)CCc1cc(C2CC2)cc2cc(CNc3cc(NC(=O)[C@H]4C[C@@H]4c4cccc(Cl)c4)ncn3)nn12 [Example 51, (1S,2S)-2-(3-chlorophenyl)-N-(6-(((5-cyclopropyl-7-(3-hydroxy-3-methylbutyl)pyrazolo[1,5-a]pyridin-2-yl)methyl)amino)pyrimidin-4-yl)cyclopropane-1-carboxamide], which EC50 is on record?
A: Its EC50 is 2.5 to 25 nM.

Q: Which EC50 does the source give for CC(C)(C#N)Cc1cc(C2CC2)cc2cc(CNc3cc(NC(=O)[C@H]4C[C@@H]4c4cccc(Cl)c4)ncn3)nn12 [Example 55, (1S,2S)-2-(3-chlorophenyl)-N-(6-(((7-(2-cyano-2-methylpropyl)-5-cyclopropylpyrazolo[1,5-a]pyridin-2-yl)methyl)amino)pyrimidin-4-yl)cyclopropane-1-carboxamide] here?
A: Its EC50 is 2.5 to 25 nM.

Q: Which EC50 does the source give for CN1CCN(c2cc(Cl)cc3cc(CNc4cc(NC(=O)[C@H]5C[C@@H]5c5cccc(Cl)c5)ncn4)cnc23)CC1 [Example 59, (1S,2S)—N-(6-(((6-chloro-8-(4-methylpiperazin-1-yl)quinolin-3-yl)methyl)amino)pyrimidin-4-yl)-2-(3-chlorophenyl)cyclopropane-1-carboxamide] here?
A: Its EC50 is 2.5 to 25 nM.

Q: How did the EC50 turn out when O=C(Nc1cc(OCc2ccc(Cn3ccc(C4CC4)n3)cc2)cnn1)[C@H]1C[C@@H]1c1cccc(Cl)c1 (racemic) [Example 4, rac-(1S*,2S*)-2-(3-chlorophenyl)-N-(5-((4-((3-cyclopropyl-1H-pyrazol-1-yl)methyl)benzyl)oxy)pyridazin-3-yl)cyclopropane-1-carboxamide] was run?
A: Its EC50 is > 500 nM.

Q: Which EC50 does the source give for CN1C(=O)CN(c2cc(C3CC3)nn3cc(CNc4cc(NC(=O)[C@H]5C[C@@H]5c5cccc(Cl)c5)ncn4)nc23)C1=O [Example 62, (S,2S)-2-(3-chlorophenyl)-N-(6-(((6-cyclopropyl-8-(3-methyl-2,4-dioxoimidazolidin-1-yl)imidazo[1,2-b]pyridazin-2-yl)methyl)amino)pyrimidin-4-yl)cyclopropane-1-carboxamide] here?
A: The EC50 was 2.5 to 25 nM.

Q: O=C(Nc1cc(NCc2cn3c(=O)n(C4CC4)ccc3n2)ccn1)[C@H]1C[C@@H]1c1cccc(Cl)c1 [Example 36, (1S,2S)-2-(3-chlorophenyl)-N-(4-(((6-cyclopropyl-5-oxo-5,6-dihydroimidazo[1,2-c]pyrimidin-2-yl)methyl)amino)pyridin-2-yl)cyclopropane-1-carboxamide] was tested. Which EC50 did it give?
A: The EC50 was 2.5 to 25 nM.

Q: O=C(O)CCc1cc(C2CC2)cc2cc(CNc3cc(NC(=O)[C@H]4C[C@@H]4c4cccc(Cl)c4)ncn3)nn12 [Example 48, 3-(2-(((6-((1S,2S)-2-(3-chlorophenyl)cyclopropane-1-carboxamido)pyrimidin-4-yl)amino)methyl)-5-cyclopropylpyrazolo[1,5-a]pyridin-7-yl)propanoic acid] was tested. Which EC50 did it give?
A: Its EC50 is 2.5 to 25 nM.

Q: Which EC50 does the source give for N#Cc1ccc(Cl)cc1[C@H]1C[C@@H]1C(=O)Nc1cc(NCc2nc3ccc(C4CC4)cn3n2)ccn1 (racemic) [Example 30, rac-(1S*,2S*)-2-(5-chloro-2-cyanophenyl)-N-(4-(((6-cyclopropyl-[1,2,4]triazolo[1,5-a]pyridin-2-yl)methyl)amino)pyridin-2-yl)cyclopropane-1-carboxamide] here?
A: The EC50 was < 2.5 nM.

Q: With O=C(Nc1cc(NCc2nc3ncc(C4CC4)cn3n2)ncn1)[C@H]1C[C@@H]1c1cccc(Cl)c1 [Example 32, (1S,2S)-2-(3-chlorophenyl)-N-(6-(((6-cyclopropyl-[1,2,4]triazolo[1,5-a]pyrimidin-2-yl)methyl)amino)pyrimidin-4-yl)cyclopropane-1-carboxamide] as the compound, how does the EC50 read?
A: The EC50 was 2.5 to 25 nM.

Q: For O=C(Nc1cc(Cc2ccc3ncc(C4CC4)cc3c2)ncn1)[C@H]1C[C@@H]1c1cccc(Cl)c1 (racemic) [Example 21, rac-(1S*,2S*)-2-(3-chlorophenyl)-N-(6-((3-cyclopropylquinolin-6-yl)methyl)pyrimidin-4-yl)cyclopropane-1-carboxamide], which EC50 is on record?
A: Its EC50 is > 500 nM.

Q: How did the EC50 turn out when Cc1ccnc([C@H]2C[C@@H]2C(=O)Nc2cc(NCc3ccc(N4CC5CC5C4)nc3)ncn2)n1 (relative stereo) [Example 79, rac-(1S*,2S*)—N-(6-(((6-(3-azabicyclo[3.1.0]hexan-3-yl)pyridin-3-yl)methyl)amino)pyrimidin-4-yl)-2-(4-methylpyrimidin-2-yl)cyclopropane-1-carboxamide] was run?
A: Its EC50 is 2.5 to 25 nM.

Q: For O=C(Nc1cc(N2C[C@@H](O)C[C@@H]2C(=O)Nc2ccc(C3CC3)cc2)ncn1)[C@H]1C[C@@H]1c1cccc(Cl)c1 [Example 64, (2R,4S)-1-(6-((1S,2S)-2-(3-chlorophenyl)cyclopropane-1-carboxamido)pyrimidin-4-yl)-N-(4-cyclopropylphenyl)-4-hydroxypyrrolidine-2-carboxamide], which EC50 is on record?
A: The EC50 was > 500 nM.

Source: patent US20240226106A1, “INHIBITORS OF PLASMA KALLIKREIN” (SHIRE HUMAN GENETIC THERAPIES, INC., priority 2021, published 2024)
